Assays:
Assay in all cases: relative viability (nuclei count vs DMSO), 5 days (fraction); higher = more cells survive
Erlotinib + Alpelisib = compound: C#Cc1cccc(Nc2ncnc3cc(OCCOC)c(OCCOC)cc23)c1 [Erlotinib] + Cc1nc(NC(=O)N2CCC[C@H]2C(N)=O)sc1-c1ccnc(C(C)(C)C(F)(F)F)c1 [Alpelisib] (partner 2 µM)
How it was run: (§1)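 Relative viability divides the nuclei count in treated wells by that in vehicle wells. Lung cancer cell lines were seeded in 1536-well plates, dosed by pin tool the next day, and fixed and stained after 5 days in one step with final 0.05% Triton X-100, 1% formaldehyde and 1 ug/ml Hoechst. Dosing was a single drug or a fixed anchor-drug dose plus five library-drug doses (not always all listed) in √10 steps, and values are medians of duplicate plates imaged at 4×.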

AT9283 + Linsitinib = compound: O=C(Nc1c[nH]nc1-c1nc2ccc(CN3CCOCC3)cc2[nH]1)NC1CC1 [AT9283] + C[C@]1(O)C[C@@H](c2nc(-c3ccc4ccc(-c5ccccc5)nc4c3)c3c(N)nccn32)C1 [Linsitinib] (partner 1 µM)
How it was run: as §1

AT9283 + Bortezomib = compound: O=C(Nc1c[nH]nc1-c1nc2ccc(CN3CCOCC3)cc2[nH]1)NC1CC1 [AT9283] + CC(C)C[C@H](NC(=O)[C@H](Cc1ccccc1)NC(=O)c1cnccn1)B(O)O [Bortezomib] (partner 0.002 µM)
How it was run: as §1

AT9283 + Dasatinib = compound: O=C(Nc1c[nH]nc1-c1nc2ccc(CN3CCOCC3)cc2[nH]1)NC1CC1 [AT9283] + Cc1nc(Nc2ncc(C(=O)Nc3c(C)cccc3Cl)s2)cc(N2CCN(CCO)CC2)n1 [Dasatinib] (partner 0.075 µM)
How it was run: as §1

Erlotinib + OSI-027 = compound: C#Cc1cccc(Nc2ncnc3cc(OCCOC)c(OCCOC)cc23)c1 [Erlotinib] + COc1cccc2cc(-c3nc([C@H]4CC[C@H](C(=O)O)CC4)n4ncnc(N)c34)[nH]c12 [OSI-027] (partner 0.5 µM)
How it was run: as §1

Cell Line | relative viability (Erlotinib + Alpelisib; first compound 0.02 µM) | relative viability (Erlotinib + Alpelisib; first compound 0.2 µM) | relative viability (Erlotinib + Alpelisib; first compound 0.6325 µM) | relative viability (Erlotinib + Alpelisib; first compound 2 µM) | relative viability (AT9283 + Linsitinib; first compound 0.003 µM) | relative viability (AT9283 + Linsitinib; first compound 0.03 µM) | relative viability (AT9283 + Linsitinib; first compound 0.09487 µM) | relative viability (AT9283 + Linsitinib; first compound 0.3 µM) | relative viability (AT9283 + Bortezomib; first compound 0.003 µM) | relative viability (AT9283 + Bortezomib; first compound 0.03 µM) | relative viability (AT9283 + Bortezomib; first compound 0.09487 µM) | relative viability (AT9283 + Bortezomib; first compound 0.3 µM) | relative viability (AT9283 + Dasatinib; first compound 0.003 µM) | relative viability (AT9283 + Dasatinib; first compound 0.03 µM) | relative viability (AT9283 + Dasatinib; first compound 0.09487 µM) | relative viability (AT9283 + Dasatinib; first compound 0.3 µM) | relative viability (Erlotinib + OSI-027; first compound 0.02 µM) | relative viability (Erlotinib + OSI-027; first compound 0.2 µM) | relative viability (Erlotinib + OSI-027; first compound 0.6325 µM) | relative viability (Erlotinib + OSI-027; first compound 2 µM)
NCI-H2347 | 1.33 | 0.966 | 1.13 | 0.893 | 0.952 | 0.975 | 0.555 | 0.389 | 0.933 | 1.01 | 1 | 0.539 | 0.342 | 0.313 | 0.26 | 0.223 | 0.345 | 0.444 | 0.415 | 0.272
NCI-H2405 | 0.853 | 0.772 | 0.822 | 0.698 | 1.06 | 0.632 | 0.315 | 0.221 | 0.875 | 0.967 | 0.721 | 0.33 | 0.177 | 0.185 | 0.132 | 0.107 | 0.701 |  | 0.614 | 0.591
NCI-H3122 |  | 0.882 | 0.872 | 0.736 | 0.963 | 0.885 | 0.346 | 0.166 | 1.04 | 1.02 | 0.548 | 0.37 | 0.763 | 0.664 | 0.111 | 0.0513 | 0.946 | 1.06 | 0.998 | 0.641
PC-3 [JPC-3] | 0.799 | 0.368 | 0.352 | 0.323 | 0.94 | 1.03 | 0.74 | 0.521 | 0.822 | 0.86 | 0.867 | 0.687 | 1.06 | 1.02 | 0.876 | 0.718 | 0.735 | 0.334 | 0.178 | 0.215
PC-14 | 0.562 | 0.133 | 0.171 | 0.112 | 1.04 | 0.729 | 0.438 | 0.138 | 0.944 | 0.704 | 0.179 | 0.116 | 0.221 | 0.146 | 0.0272 | 0.016 | 0.43 | 0.0949 | 0.136 | 0.0777
RERF-LC-KJ | 0.877 | 0.666 | 0.613 | 0.469 | 0.995 | 0.508 | 0.264 | 0.208 | 1.02 | 0.793 | 0.526 | 0.296 | 0.864 | 0.391 | 0.212 | 0.188 | 0.528 | 0.417 | 0.394 | 0.337
SK-LU-1 | 1.36 | 1.01 | 0.962 | 0.631 | 1.1 | 0.349 | 0.323 | 0.356 | 1.21 | 1.02 | 0.646 | 0.279 | 0.217 | 0.124 | 0.0747 | 0.0888 | 0.305 | 0.369 | 0.302 | 0.253
SW 1573 | 0.805 | 0.706 | 0.87 |  | 0.917 | 0.413 | 0.223 | 0.184 | 1.04 | 0.304 | 0.279 | 0.236 | 0.496 | 0.115 | 0.0919 | 0.0873 | 0.651 | 0.503 | 0.597 | 0.44
UMC-11 | 0.986 | 1.06 | 1.21 | 1.05 | 0.849 | 0.138 | 0.14 | 0.168 | 0.465 | 0.108 | 0.0924 | 0.129 | 0.453 | 0.128 | 0.139 | 0.154 |  | 0.412 | 0.492 | 0.424

Reference: the supplement of paper PMC10307832
